Laboratory results published in article PMC5700336, “The Gastrointestinal Tract Is a Major Source of Echinocandin Drug Resistance in a Murine Model of Candida glabrata Colonization and Systemic Dissemination” (Antimicrobial Agents and Chemotherapy, 2017).

Columns and labels:
[1] = test system: C. glabrata 2001 Δmsh2; assay: Murine C. glabrata GI colonization model: GI/fecal burden under daily treatment; format: in vivo, Candida glabrata
Procedure: (§1) Six-week-old female outbred CF-1 immunocompetent mice (Charles River Laboratories) were treated (subcutaneously [s.c.]) with 320 mg/kg of piperacillin-tazobactam (PTZ; 8:1 ratio) beginning on day −2 to clear native intestinal bacterial flora. Daily PTZ treatment was maintained throughout the experiment (see Fig. 3A). On day 0, mice were inoculated via oral gavage with approximately 1.5 × 10^8 CFU of C. glabrata in 100 μl of saline. Mice were colonized with ATCC 2001 (CBS 138), clinical strains from the Perlin Laboratory collection, or mutator strain 2001 Δmsh2 ([19]). Fresh fecal samples were collected throughout the experiment to assess fungal burden in the GI tract. Daily administration of caspofungin (0.5, 5, or 20 mg/kg, i.p.), nikkomycin Z (100 mg/kg, oral) (Sigma), or saline (100 μl i.p.) was initiated on day 3 postinoculation and continued through sacrifice day (typically day 15). Caspofungin-resistant colony frequencies were determined through selection of fecal samples on yeast extract-peptone-dextrose (YPD) plates supplemented with caspofungin (2 μg/ml), PTZ (16 μg/ml), and chloramphenicol (20 μg/ml). The corticosteroid dexamethasone (DMX) was administered twice daily (100 mg/kg, i.p.) for 3 days (days 12 to 14) prior to euthanization (day 15; Fig. 3A). Blood, kidneys, liver, spleen, and the gastrointestinal tract components were collected on day 15 (or earlier where indicated), homogenized, and plated onto YPD plates supplemented with chloramphenicol (75 μg/ml) and ampicillin (50 μg/ml) to determine CFU levels.

[2] = Single-dose pharmacokinetics in plasma and GI lumen contents; format: in vivo, mice; conditions: LC-MS/MS; for large intestine mean Cmax / small intestine mean Cmax: lumen contents, mean of three mice
Procedure: Mice were colonized with ATCC 2001 and then treated (i.p.) once with 5 or 20 mg/kg caspofungin at time zero (2 days postinoculation). Three mice from each treatment group were sacrificed at each time point (0, 1, 2, 4, 8, 16, 24, and 48 h), and blood and small and large intestinal lumen contents (without intestinal walls) were collected. Fecal pellets were also collected from mice at 0, 4, 16, 24, and 48 h prior to sacrifice. Caspofungin levels in plasma and GI compartments were measured by liquid chromatography-tandem mass spectrometry (LC-MS/MS) in electrospray positive-ionization mode (ESI+) on an AB Sciex QTrap 4000 triple-quadrupole mass spectrometer combined with an Agilent 1260 high-performance liquid chromatograph (HPLC) using the Analyst software and multiple-reaction monitoring (MRM) of precursor/product transitions. The MRM transitions used were 547.50/538.40 for caspofungin and 455.4/165.2 for the internal standard verapamil. Chromatography was performed with an Agilent Zorbax SB-C8 column (2.1 by 30 mm; particle size, 3.5 μm) using a reverse-phase gradient elution. One-tenth percent formic acid in Milli-Q deionized water was used for the aqueous mobile phase and 0.1% formic acid in acetonitrile (ACN) for the organic mobile phase. Small and large intestinal contents were homogenized prior to extraction by combining 3 parts PBS buffer to 1 part GI tract contents. One milligram per milliliter dimethyl sulfoxide (DMSO) stock was serially diluted in 50/50 ACN-water to create standard curves and quality control spiking solutions. Twenty microliters of neat spiking solutions was added to 20 μl of drug-free mouse K2EDTA plasma (Bioreclamation) or GI tract homogenate, and extraction was performed by adding 200 μl of acetonitrile-methanol 50/50 protein precipitation solvent containing 10 ng/ml verapamil (Sigma). Extracts were vortexed for 5 min and centrifuged at 4,000 rpm for 5 min. The supernatants were analyzed by LC-MS. Sample analysis was accepted if the concentrations of the quality control samples were within 20% of the nominal concentration.

[3] = test system: C. glabrata ATCC 2001; assay: GI yeast burden after a single caspofungin dose; format: in vivo, Candida glabrata
[4] = test system: C. glabrata 2001 Δmsh2; assay: Systemic breakthrough (blood and organs) after dexamethasone immunosuppression; format: in vivo, Candida glabrata; conditions: day 15
Procedure: as §1, with “Blood, kidneys, liver, spleen, and the gastrointestinal tract components were collected on day 15 (or earlier where indicated), homogenized, and plated onto YPD plates supplemented with chloramphenicol (75 μg/ml) and ampicillin (50 μg/ml) to determine CFU levels.” left out

[5] = test system: C. glabrata Δmsh2 mutant cells; assay: In vitro caspofungin-resistant colony frequency after nikkomycin pretreatment; format: cell-based, Candida glabrata; conditions: cells incubated with nikkomycin Z for 2 h prior to plating on agar with 2 μg/ml caspofungin
Procedure: FIG 4 Nikkomycin reduces C. glabrata caspofungin resistance and tolerance formation in vitro. (A) Caspofungin-resistant colony frequencies following selection on agar plates containing 2 μg/ml caspofungin. Cells were incubated with the indicated concentrations of nikkomycin Z for 2 h prior to plating. (B) Killing assay with strains grown in the presence or absence of 128 μg/ml nikkomycin Z (Nz) and increasing concentrations of caspofungin. The mean counts from three independent biological experiments ± standard deviations are shown.

[6] = test system: C. glabrata wild-type and Δmsh2 cells; assay: In vitro killing assay; format: cell-based, Candida glabrata; conditions: 128 μg/ml nikkomycin Z, caspofungin 0.016 to 32 μg/ml, RPMI, 37°C, 24 h; three independent experiments
Procedure: Fresh 1-ml RPMI cultures (plus necessary amino acids) of C. glabrata (1 × 10^7 cells) were incubated at 37°C while shaking (165 rpm) for 24 h in 2-fold increasing concentrations (0.016 to 32 μg/ml) of caspofungin and in the presence (128 μg/ml) or absence of nikkomycin Z. After 24 h, 100 μl of the appropriate dilutions for each culture was plated onto YPD plates. CFU were counted 24 h after plating and data represented as the CFU per milliliter that survived at each concentration of drug.

[7] = single i.p. dose, both 5 and 20 mg/kg, lumen contents without intestinal walls, three mice per time point

Structure (SMILES)	change in GI burden ([1]; caspofungin 0.5 mg/kg i.p. daily)	change in GI burden ([1]; caspofungin 5 mg/kg i.p. daily)	decrease in average GI burden ([1]; caspofungin 20 mg/kg i.p. daily from day 3, following 5 days of treatment, 10 mice per group) [log]	GI burden after rebound to baseline ([1]; caspofungin 20 mg/kg i.p. daily, by day 11)	decrease in fecal burden ([1]; following 4 days of 20 mg/kg caspofungin) [log]	average decrease of colonization levels throughout the GI tract ([1]; following 4 days of 20 mg/kg caspofungin, one mouse per condition) [log]	Tmax ([2]; mouse, plasma, ip, single i.p. dose, both 5 and 20 mg/kg, colonized CF-1 mice, three mice per time point, read-out: time of Cmax, plasma) [h]	large intestine mean Cmax ([2]; single i.p. dose 5 mg/kg) [ng/mL]	small intestine mean Cmax ([2]; single i.p. dose 5 mg/kg) [ng/mL]	large intestine mean Cmax ([2]; single i.p. dose 20 mg/kg) [ng/mL]	small intestine mean Cmax ([2]; single i.p. dose 20 mg/kg) [ng/mL]	time of Cmax, large intestine [2, 7] [h]	time of Cmax, small intestine [2, 7] [h]	GI burden levels after single dose ([3]; single i.p. dose 5 mg/kg)	GI burden levels after single dose ([3]; single i.p. dose 20 mg/kg)	bloodstream infection ([4]; caspofungin 5 mg/kg i.p. daily)	bloodstream infection ([4]; caspofungin 20 mg/kg i.p. daily)	effect on caspofungin-resistant colony frequency [5]	effect on killing by caspofungin [6]
CC[C@H](C)C[C@H](C)CCCCCCCCC(=O)N[C@H]1C[C@@H](O)[C@@H](NCCN)NC(=O)[C@@H]2[C@@H](O)CCN2C(=O)[C@H]([C@H](O)CCN)NC(=O)[C@H]([C@H](O)[C@@H](O)c2ccc(O)cc2)NC(=O)[C@@H]2C[C@@H](O)CN2C(=O)[C@H]([C@@H](C)O)NC1=O [caspofungin]	unchanged	unchanged	~2.5	~1 × 10^8 CFU/g of stool	2.8	2.7	2	3800	9100	36200	22200	8	4	minimal decrease and faster recovery to baseline	decreased by 16 h and then returned to original baseline levels by 48 h	no isolates were recovered from the blood	no isolates were recovered from the blood	–	–
C[C@@H]([C@H](N)C(=O)N[C@H](C(=O)O)[C@H]1O[C@@H](n2ccc(=O)[nH]c2=O)[C@H](O)[C@@H]1O)[C@H](O)c1ccc(O)cn1 [nikkomycin, nikkomycin Z]	–	–	–	–	–	–	–	–	–	–	–	–	–	–	–	–	–	reduced the frequency of caspofungin-resistant mutants	increased the killing ability of caspofungin
